50 compounds from ChEMBL document CHEMBL1201862, “PubChem BioAssay data set” (2004) can be followed below.

A short description of data set [1]: NIH3T3 cell viability loss – ATP luminescence, mouse fibroblasts, counter-screen, dose response (AID 2010).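 Also: cells exposed to compound for about 90 hours before reading.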 In kind it is functional, cell-based. In general terms: The purpose of a counterscreen is to sort out artefacts and off-target activity.
Data set [2] in a line: Trypanosoma cruzi growth suppression in host cells – NIH3T3 host cells, beta-gal luminescence, confirmation (AID 2044).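 Also: intracellular parasites grown in NIH/3T3 mouse fibroblasts as host cells; luminescent beta-galactosidase reporter signal from transgenic T. cruzi replicating inside host cells; inhibitors lower the luminescence signal.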 In kind it is functional, cell-based.
The target in a further data set is Cytochrome P450 2D6 (Homo sapiens, UniProt P10635).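 Also: CYP2D6 member of a cytochrome P450 panel assay.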
The target of the next data set is Cytochrome P450 2C19 (Homo sapiens, UniProt P33261). The experiment in a line: Cytochrome panel assay with activity outcomes. Panel member name: p450-cyp2c19 Compounds with AC50 equal or less than 10 uM are considered active. It counts as functional.
Data set [3] is described as follows: viability of uninfected HEp-2 cells – cell-based, HTS, cytotoxicity control for RSV inhibitor project, dose response (AID 2410). In kind it is functional. As to conditions: human respiratory syncytial virus.
Data set [4] addresses T1, Corticotropin-releasing factor receptor 2/Corticotropin-releasing factor-binding protein (Homo sapiens, UniProt P24387+Q13324).
T1 sequence (Q13324 whole entry): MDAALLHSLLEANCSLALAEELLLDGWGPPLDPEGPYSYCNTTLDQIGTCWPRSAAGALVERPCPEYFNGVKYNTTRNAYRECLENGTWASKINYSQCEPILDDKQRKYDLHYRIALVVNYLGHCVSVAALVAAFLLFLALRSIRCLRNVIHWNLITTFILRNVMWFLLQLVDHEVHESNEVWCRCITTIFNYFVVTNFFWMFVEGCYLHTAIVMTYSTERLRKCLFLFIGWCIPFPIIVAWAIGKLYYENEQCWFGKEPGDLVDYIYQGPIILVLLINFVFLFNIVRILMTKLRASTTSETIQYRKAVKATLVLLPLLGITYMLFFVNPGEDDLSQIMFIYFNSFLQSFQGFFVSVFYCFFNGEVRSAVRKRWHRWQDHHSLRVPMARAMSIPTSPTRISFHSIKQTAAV
T1 sequence (P24387 whole entry): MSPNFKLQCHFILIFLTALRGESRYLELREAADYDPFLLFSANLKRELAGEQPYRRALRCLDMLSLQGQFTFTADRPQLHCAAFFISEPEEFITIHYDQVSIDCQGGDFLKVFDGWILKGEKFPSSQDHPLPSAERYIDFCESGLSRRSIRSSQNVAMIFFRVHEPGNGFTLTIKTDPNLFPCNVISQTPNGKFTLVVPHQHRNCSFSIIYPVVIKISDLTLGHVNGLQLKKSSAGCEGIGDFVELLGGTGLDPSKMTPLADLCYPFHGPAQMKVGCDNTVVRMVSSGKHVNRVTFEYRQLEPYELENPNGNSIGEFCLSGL
Nature of the data set: activators of CRF receptor 2 with binding protein – uHTS hits, confirmation (AID 602473). In kind it is functional. As to conditions: read-out: EC50_Mean.

The target of data set [5] is Luciferin 4-monooxygenase (Photinus pyralis, UniProt P08659). The experiment in a line: inhibition of purified Photinus pyralis luciferase – biochemical, luminescence, dose response (AID 1891).
Data set [6] is described as follows: Luminescence Cell-Based Dose Confirmation HTS to Identify Inhibitors of Platelet Dense Granule Release. [Related pubchem assays: 1663 (Primary HTS), 1678 (Summary of Project)]. It counts as functional.
In the next data set the test system is Streptococcus. Nature of the data set: GAS UMAA2166 growth inhibition – luminescence, BacTiterGlo, counter-screen for streptokinase expression inhibitor project, dose response (AID 1915).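 Also: potency for reduction of bacterial viability or growth.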 It counts as functional, organism-based.
Data set [7] concerns Streptococcus sp. 'group A'. The experiment in a line: Streptococcus pyogenes SK(-)GAS viability under kanamycin – luminescence, BacTiterGlo, confirmation, counter-screen for streptokinase expression inhibitor project, dose response (AID 1900). In kind it is functional, organism-based.

Activity calls are given as the source filed them. A value given as a limit tells only on which side of the number the result lay.

Chain of Cytochrome P450 2C19 (P33261 whole entry): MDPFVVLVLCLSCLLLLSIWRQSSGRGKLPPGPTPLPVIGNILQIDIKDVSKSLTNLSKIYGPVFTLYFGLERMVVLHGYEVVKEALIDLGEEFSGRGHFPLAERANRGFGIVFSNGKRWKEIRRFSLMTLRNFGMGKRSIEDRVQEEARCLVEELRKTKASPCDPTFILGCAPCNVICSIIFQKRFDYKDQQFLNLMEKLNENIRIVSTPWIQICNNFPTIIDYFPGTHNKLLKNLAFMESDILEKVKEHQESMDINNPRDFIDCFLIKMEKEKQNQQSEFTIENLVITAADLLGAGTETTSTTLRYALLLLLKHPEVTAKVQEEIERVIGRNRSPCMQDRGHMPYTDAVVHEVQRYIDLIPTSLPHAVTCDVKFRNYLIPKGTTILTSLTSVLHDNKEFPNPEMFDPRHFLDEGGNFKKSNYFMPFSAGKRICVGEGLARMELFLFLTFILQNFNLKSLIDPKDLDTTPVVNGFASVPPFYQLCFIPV
Chain of Cytochrome P450 2D6 (P10635 whole entry): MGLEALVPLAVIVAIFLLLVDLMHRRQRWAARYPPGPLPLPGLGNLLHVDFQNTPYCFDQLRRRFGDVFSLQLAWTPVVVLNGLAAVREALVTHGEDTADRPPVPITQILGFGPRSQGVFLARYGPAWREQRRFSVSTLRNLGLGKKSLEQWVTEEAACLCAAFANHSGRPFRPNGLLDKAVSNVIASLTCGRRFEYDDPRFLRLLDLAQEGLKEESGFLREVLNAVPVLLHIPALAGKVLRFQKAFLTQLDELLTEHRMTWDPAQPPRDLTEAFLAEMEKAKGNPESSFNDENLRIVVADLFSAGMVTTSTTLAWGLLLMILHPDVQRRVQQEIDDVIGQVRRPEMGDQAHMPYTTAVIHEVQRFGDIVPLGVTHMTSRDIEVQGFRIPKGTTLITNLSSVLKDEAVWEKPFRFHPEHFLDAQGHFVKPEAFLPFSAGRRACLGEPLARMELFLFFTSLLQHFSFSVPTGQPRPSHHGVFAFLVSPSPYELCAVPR
Chain of Luciferin 4-monooxygenase (P08659 whole entry): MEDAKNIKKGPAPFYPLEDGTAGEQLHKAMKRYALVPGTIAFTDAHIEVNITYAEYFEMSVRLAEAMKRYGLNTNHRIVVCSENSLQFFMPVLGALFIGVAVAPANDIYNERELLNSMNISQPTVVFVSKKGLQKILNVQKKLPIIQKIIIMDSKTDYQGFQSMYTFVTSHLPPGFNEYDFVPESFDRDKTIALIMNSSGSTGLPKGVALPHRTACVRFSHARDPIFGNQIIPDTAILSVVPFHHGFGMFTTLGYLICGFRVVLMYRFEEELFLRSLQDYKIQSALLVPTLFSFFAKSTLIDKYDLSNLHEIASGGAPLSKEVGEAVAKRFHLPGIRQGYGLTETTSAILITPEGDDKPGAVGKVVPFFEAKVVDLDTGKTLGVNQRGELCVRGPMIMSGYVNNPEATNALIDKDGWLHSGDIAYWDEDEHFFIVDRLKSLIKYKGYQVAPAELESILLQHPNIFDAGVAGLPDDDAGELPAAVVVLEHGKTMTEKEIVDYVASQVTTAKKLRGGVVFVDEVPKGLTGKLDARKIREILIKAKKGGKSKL

As for `Cc1nn(C)c(Cl)c1CN1CCCC(CCC(=O)NCc2ccccc2F)C1` (stereo not drawn), the figures for the EC50 in data set [1] and in [2] were > 30 µM (not active) and 0.181 µM (active), respectively.
For `Cc1nc2c(C(=O)NCc3ccco3)cnn2c(C)c1Cc1ccc(F)cc1Cl`, in that order: > 30 µM (not active) and 2.17 µM (active).
As usually defined, the AC50 is the midpoint of the concentration-response curve, whichever way the signal moves. Consider `Cc1cc2cc3c(cc2nc1SCC(=O)Nc1c(C)cccc1C)CCC3`, for which the AC50 at Cytochrome P450 2D6 was 14.1 µM (inconclusive).
For `O=C1OCCC=C1[C@@H](O)CCc1ccccc1`, the AC50 at Cytochrome P450 2C19 (read-out: AC50) is 0.316 µM (inconclusive).
As for `CC1CCCCN1S(=O)(=O)c1ccc(S(=O)(=O)N(Cc2ccccc2)Cc2ccco2)cc1` (stereo not drawn), the EC50 was > 60 µM (not active) in [1] and 1.09 µM (active) in [2].
For `COc1ccc(N(CC(=O)NCCC2=CCCCC2)S(=O)(=O)c2ccccc2)cc1OC`, in that order: > 60 µM (not active) and 3.35 µM (active).
For orientation: CC50 means the concentration giving 50% cytotoxicity. Consider `COc1ccc(-c2noc(CCCC(=O)NCC3CCCO3)n2)cc1` (stereo not drawn), for which, in data set [3], the CC50 was 30.3 µM (active).
For the compound `Cc1ccc(C)c(OCC(O)CN2CCc3ccccc3C2)c1C` (stereo not drawn), the CC50 in data set [3] is 46.3 µM (active).
In the case of `Cc1ccc(NC(=O)C(=O)NCc2ccc(/C=C(/C#N)C(=O)NCc3cccnc3)o2)cc1`, the AC50 on Cytochrome P450 2C19 (read-out: AC50) is 7.08 µM (inconclusive).
Turning to `CCc1ccc(C(C(=O)NCc2ccc(OC)cc2)N(CCOC)C(=O)Cc2cccs2)cc1` (stereo not drawn), the AC50 at Cytochrome P450 2D6 is 25.1 µM (inconclusive).
Turning to `Nc1nn(S(=O)(=O)c2ccccc2)cc1-c1cccc([N+](=O)[O-])c1`, the EC50 in data set [1] is > 60 µM (not active); in data set [2], 1.83 µM (active).
As to `O=C(CCCc1ccccn1)c1ccccc1`, the AC50 at Cytochrome P450 2C19 (read-out: AC50) was 2.51 µM (inconclusive).
On to `c1ccc(-c2cc3c(N4CCCC4)ncnc3s2)cc1`, for which the CC50 in [3] is > 50 µM (active).
On to `O=C(c1ccc(Cl)cc1)C1CCCN(Cc2cnn(-c3ccccc3)c2)C1` (stereo not drawn), for which the EC50 in data set [1] was > 60 µM (inconclusive); in data set [2] it was 0.503 µM (active).
In the case of `Cn1c(=O)c2c(SCC(=O)N3CCCc4ccccc43)nc(CC(C)(C)C)nc2n(C)c1=O`, the CC50 in data set [3] is > 50 µM (active).
For `CCOc1ccccc1C1c2[nH]c3ccccc3c2C[C@H]2C(=O)N(C3CCN(Cc4ccccc4)CC3)CC(=O)N12` (stereo partly drawn), the EC50 in data set [1] was > 60 µM (not active); in data set [2], 2.15 µM (active).
With `O=C(c1cccc(F)c1)N1CCC2(CCCN(Cc3ccccc3)C2)CC1`, the AC50 on Cytochrome P450 2D6 is 10 µM (inconclusive).
For `CCOC(=O)c1c(NC(=O)CN2C(=O)NC3(CCCCC3C)C2=O)sc(C)c1CC` (stereo not drawn), the EC50 in data set [1] was > 60 µM (not active); in data set [2], 2.37 µM (active).
For `CCN(CC)S(=O)(=O)c1ccc(NN=C2CCN(C)CC2)c([N+](=O)[O-])c1`, in that order: > 60 µM (not active) and 0.482 µM (active).
`COc1cc(OC)c(OC)cc1/C=C1/Cc2ccccc2C1=O`: the EC50 in data set [4] was 5.48 µM (active).
As to `COc1cccc(-c2cc(C(=O)Nc3ccc(N(C)C(C)=O)cc3)c3cc(Br)ccc3n2)c1`, the results for the EC50 in data set [1] and in data set [2] were > 60 µM (not active) and 1.83 µM (active), respectively.
Regarding `CCOCCCN1C(=O)CN(C2CCC(C)CC2)C(=O)C1c1ccc(C)cc1` (stereo not drawn), the EC50 in [5] and in data set [6] was > 112 µM (not active) throughout.
Turning to `O=C(Nc1cccc(F)c1)N1CCC2(CCNCC2)CC1`, the AC50 was 20 µM (inconclusive) on Cytochrome P450 2C19 (read-out: AC50) and 12.6 µM (inconclusive) on Cytochrome P450 2D6.
As to `COc1ccc(Cl)cc1Nc1nc(-c2sc(NC(=O)c3ccco3)nc2C)cs1`, in data set [3], the CC50 was 35.4 µM (active).
With `N#Cc1c(-c2ccc3c(c2)OCO3)ccn2nc(-c3cccc(C(F)(F)F)c3)nc12`, the AC50 at Cytochrome P450 2D6 is 3.16 µM (inconclusive).
As for `CNc1ccc(Oc2nc([N+](=O)[O-])nn2C)cc1`, the results for the EC50 in data set [1] and in [2] were > 60 µM (not active) and 1.43 µM (active), respectively.
Take `COC(=O)c1c(NC(=O)CN2C(=O)NC3(CCC(C(C)(C)C)CC3)C2=O)sc2c1CCCCC2` (stereo not drawn): the EC50 in [1] is > 60 µM (not active); in data set [2] it was 3.11 µM (active).
As to `O=C(Nc1ncc(Cc2ccc(Cl)cc2Cl)s1)c1ccc([N+](=O)[O-])cc1`, in data set [4], the EC50 is > 53 µM (inactive).
For the compound `CN(C)CCOC(=O)C1(c2ccccc2)CCCC1`, the EC50 in data set [5] and in data set [6] was > 112 µM (not active) each time.
Take `c1ccc2c(N3CCCCCC3)nc(-c3ccncc3)nc2c1`: in data set [3], the cytotoxic concentration (CC50) is 15.9 µM (active).
Turning to `CC(=O)OCCN1C(=O)c2cccc3cc([N+](=O)[O-])cc(c23)C1=O`, the EC50 in data set [1] is > 30 µM (not active); in data set [2], 0.358 µM (active).
Regarding `O=C(O)CC1(CC(=O)O)Nc2ccccc2SC1=O`, the AC50 result on Cytochrome P450 2C19 was “inconclusive”.
As for `CSc1scc2c1-c1nc(SCC(=O)C(C)(C)C)ncc1CC2`, the CC50 in data set [3] is 20.6 µM (active).
As to `CCc1ccc2nc(O)c(CN(Cc3ccccc3)C(=O)Nc3ccccc3OC)cc2c1`, the EC50 in data set [1] was > 60 µM (not active); in data set [2], 1.93 µM (active).
On the same counts, the results for `COc1ccc(-n2nc3c(N4CCC(C(=O)N5CCCCCC5)CC4)nnc(C)c3c2C)cc1` are > 60 µM (not active) and 0.858 µM (active).
Consider `COC(=O)[C@@]1(Cc2ccc(OC)cc2)[C@H]2c3cc(C(=O)N(C)C)n(C)c3C[C@H]2CN1C(=O)c1ccccc1`, for which, on Cytochrome P450 2C19 (read-out: AC50), the AC50 was 25.1 µM (inconclusive).
Turning to `COC(=O)Cn1c(=N)n(CCN2CCCCC2)c2ccccc21`, at Cytochrome P450 2D6, the AC50 is 44.7 µM (inconclusive).
For the compound `Sc1ncnc2c1sc1nc(N3CCOCC3)c3c(c12)CCCC3`, the 50% cytotoxic concentration (CC50) in [3] was > 50 µM (active).
Take `CCOC(=O)/C=c1/s/c(=C/c2ccc3cc(OC)ccc3c2)c(=O)n1CC(=O)NCc1ccc2c(c1)OCO2`: the EC50 in [4] is 4.9 µM (active).
On the same count and under the same terms, to `COc1cc(C)c(C)cc1S(=O)(=O)N1CCCc2ccccc21` belongs 5.44 µM (active).
`COc1cc(N2CCOCC2)ncn1`: the AC50 on Cytochrome P450 2C19 (read-out: AC50) is 0.00562 µM (inconclusive).
As for `Cc1cccc(OCC(=O)NNC(=O)CSc2ncc(C#N)c(N)n2)c1`, the values for the AC50 on Cytochrome P450 2C19 (read-out: AC50) and at Cytochrome P450 2D6 were 15.8 µM (inconclusive) and 4.47 µM (inconclusive), respectively.
For `Nc1cccc2c1Cc1cc([N+](=O)[O-])ccc1-2`, the EC50 in [4] was > 53 µM (inactive).
For `Fc1ccc(/C=N/Nc2nccnc2Cl)cc1`, the EC50 in data set [5] was 8.1 µM (active); in [6], 1.65 µM (active).
Turning to `Cc1c(/C=N/NC(=O)C(NC(=O)c2ccc3c(c2)OCO3)C(C)C)c2ccccc2n1C` (stereo not drawn), the EC50 in data set [4] was 1.24 µM (active).
With `CC(=O)c1sc(N/N=C\c2c(O)ccc3ccccc23)nc1C`, the EC50 in the data set with Streptococcus was 7.49 µM (active); in data set [7], 4.07 µM (active).
Turning to `CN(C)c1ccc(/C=N/N=C(N)N)cc1[N+](=O)[O-]`, the EC50 is > 60 µM (not active) in [1] and 0.144 µM (active) in data set [2].
As to `NC(=S)N/N=C/c1ccc(-c2cc(Cl)cc(Cl)c2)o1`, the values for the EC50 in [1] and in [2] were > 60 µM (not active) and 2.67 µM (active), respectively.
Turning to `COc1cc(O)oc1/C=N/c1ccc(Cl)cc1`, the concentration at half-maximal activity (AC50) at Cytochrome P450 2D6 is 14.1 µM (inconclusive).
Still for that read-out and setting: under `C[C@@H]1CN(CCCn2c3ccccc3c3ccccc32)C[C@H](C)N1` [RIMCAZOLE] stands 15.8 µM (inconclusive).
